The target of one assay is Prothrombin (Homo sapiens, UniProt P00734). In words: Inhibition of thrombin.
Assay [1] in a line: Inhibition of trypsin.
Assay [2] is described as follows: Selectivity ratio of IC50 for trypsin to IC50 for thrombin.

Here are results for 21 molecules from ChEMBL document CHEMBL1141527, “Design, synthesis, and thrombin-inhibitory activity of pyridin-2-ones as P2/P3 core motifs” (Bioorg Med Chem Lett, 2008).

SMILES strings stand for the structures. A value given as a limit tells only on which side of the number the result lay.

Consider `Cc1ccn(NCS(=O)(=O)c2ccc(Cl)cc2)c(=O)c1CC(=O)NCc1ccnc(N)c1`, for which the IC50 at Prothrombin was over 44.4 µM.
Still for that read-out and setting: to `Cc1cc(-c2ccc(S(=O)(=O)Nn3ccc(C)c(CC(=O)NCc4ccc(N)nc4)c3=O)cc2)c(C)s1` belongs over 44.4 µM.
In assay [1], `Cc1ccc(C)c(CCNn2ccc(C)c(CC(=O)NCc3ccc(C(=N)N)cc3)c2=O)c1` gave an IC50 of 2.14 µM. Further, in assay [2], the Ratio IC50 was 23.
On Prothrombin, `Cc1ccnc(CNC(=O)Cc2c(C)ccn(NS(=O)(=O)c3ccccc3S(C)(=O)=O)c2=O)c1F` displayed an IC50 of over 44.4 µM.
With `Cc1ccn(/N=C/Cc2cccc(C(F)(F)F)c2)c(=O)c1CC(=O)NCc1ccc(N)nc1`, the IC50 is 2.71 µM at Prothrombin and over 44.4 µM in assay [1]. Besides, the Ratio IC50 in assay [2] is over 16.
On the same counts, the results for `COc1cc(C)ccc1S(=O)(=O)Nn1ccc(C)c(CC(=O)NCc2ccc(C(=N)N)cc2)c1=O` are 1.18 µM, 2.02 µM and 1.7.
On the same counts, the results for `COc1cc(Cl)ccc1S(=O)(=O)Nn1ccc(C)c(CC(=O)NCc2ccc(C(=N)N)cc2)c1=O` are 0.307 µM, 4.13 µM and 13.
On to `COc1ccc(S(=O)(=O)Nn2ccc(C)c(CC(=O)NCc3ccc(N)nc3)c2=O)c(OC)c1`, for which the IC50 against Prothrombin is over 44.4 µM; in assay [1] it was over 4.4 µM.
As for `COc1ccc(S(=O)(=O)Nn2ccc(C)c(CC(=O)NCc3ccc(C(=N)N)cc3)c2=O)cc1`, the IC50 against Prothrombin was 1.85 µM; in assay [1], 3.41 µM. Moreover, the Ratio IC50 in assay [2] is 1.8.
On the same counts, the results for `COc1cccc(S(=O)(=O)Nn2ccc(C)c(CC(=O)NCc3ccc(C(=N)N)cc3)c2=O)c1` are 1.05 µM, 15.6 µM and 15.
On the same counts, the results for `Cc1ccn(NS(=O)(=O)c2ccccc2)c(=O)c1CC(=O)NCc1ccc(C(=N)N)cc1` are 2.47 µM, 5.77 µM and 2.3.
For the molecule `Cc1ccn(NS(=O)(=O)c2cccc3ccccc23)c(=O)c1CC(=O)NCc1ccc(C(=N)N)cc1`, the IC50 against Prothrombin stood at 1.24 µM; in assay [1], 17.1 µM. The Ratio IC50 in assay [2] stood at 14.
On the same counts, the results for `Cc1ccn(NS(=O)(=O)c2ccc(Cl)c(Cl)c2)c(=O)c1CC(=O)NCc1ccc(C(=N)N)cc1` are 0.885 µM, 10.3 µM and 12.
On Prothrombin, `CCCc1ccc(S(=O)(=O)Nn2ccc(C)c(CC(=O)NCc3nccc(C)c3F)c2=O)cc1` showed a half-maximal inhibitory concentration (IC50) of over 44.4 µM.
`Cc1ccn(NCCc2ccccc2)c(=O)c1CC(=O)NCc1ccc(C(=N)N)cc1`: the IC50 came to 0.091 µM at Prothrombin and 1.42 µM in assay [1]. Also, in assay [2], the Ratio IC50 was 16.
As for `Cc1ccnc(CNC(=O)Cc2c(C)ccn(NS(=O)(=O)c3c(C)cccc3Cl)c2=O)c1F`, the IC50 (on Prothrombin; in assay [1]) was over 44.4 µM in each case.
At Prothrombin, `CCc1ccc(S(=O)(=O)Nn2ccc(C)c(CC(=O)NCc3ccnc(N)c3)c2=O)cc1` displayed an IC50 of over 44.4 µM.
Same read-out and setting: to `Cc1ccnc(CNC(=O)Cc2c(C)ccn(NCCc3cc(Cl)ccc3F)c2=O)c1F` belongs over 44.4 µM.
`Cc1ccn(NS(=O)(=O)Cc2ccccc2)c(=O)c1CC(=O)NCc1ccc(C(=N)N)cc1`: the IC50 at Prothrombin turned out to be 1.92 µM; in assay [1], 15.2 µM. Moreover, in assay [2], the Ratio IC50 turned out to be 7.9.
On the same counts, the results for `Cc1ccccc1CCNn1ccc(C)c(CC(=O)NCc2ccc(C(=N)N)cc2)c1=O` are 0.023 µM, 0.963 µM and 42.
On the same counts, the results for `Cc1ccc(C)c(S(=O)(=O)Nn2ccc(C)c(CC(=O)NCc3ccc(C(=N)N)cc3)c2=O)c1` are 0.578 µM, 7.13 µM and 12.
